Results: ChEMBL document CHEMBL2040738, “Regioselective N1-alkylation of 3,4-dihydropyrimidine-2(1H)-ones: screening of their biological activities against Ca(2+)-ATPase” (Eur J Med Chem, 2012)
Calls of active or inactive are those of the source. The rule behind the calls is not given here.

Key:
[1] = Inhibition of goat Ca2+-ATPase assessed as liberation of inorganic phosphate preincubated for 5 mins measured after 30 mins following ATP addition by colorimetric analysis in absence of Mg2+; set-up: species or system Capra hircus; details: read-out: I50
[2] = Inhibition of sodium/potassium ATPAse
Capra hircus [3] = organism: Capra hircus; experiment: Inhibition of goat Ca2+-ATPase assessed as liberation of inorganic phosphate preincubated for 5 mins measured after 30 mins following ATP addition by colorimetric analysis in presence of Mg2+ and 300 uM verapamil
[4] = Inhibition of goat Ca2+-ATPase assessed as liberation of inorganic phosphate preincubated for 5 mins measured after 30 mins following ATP addition by colorimetric analysis in presence of Mg2+; set-up: species or system Capra hircus; details: read-out: I50
Capra hircus [5] = organism: Capra hircus; experiment: Inhibition of goat Ca2+-ATPase assessed as liberation of inorganic phosphate preincubated for 5 mins measured after 30 mins following ATP addition by colorimetric analysis in absence of Mg2+ and 300 uM verapamil

SMILES	IC50 [1] [µM]	inhibition [2]	inhibition (Capra hircus [3])	IC50 [4] [µM]	inhibition (Capra hircus [5])
CCOC(=O)C1=C(C)NC(=O)NC1c1ccccc1 (stereo not given)	226	inactive	Active	222	Active
CCOC(=O)C1=C(C)NC(=O)NC1c1ccccc1Cl (stereo not given)	247	inactive	Active	268	Active
CCOC(=O)C1=C(C)NC(=O)NC1c1cccc([N+](=O)[O-])c1 (stereo not given)	282	inactive	Active	132	Active
CCOC(=O)C1=C(C)NC(=O)NC1c1ccc(O)cc1 (stereo not given)	203	inactive	Active	289	Active
